Bridge positions count the residues as written; N and C are the ends. Square brackets hold non-standard residues; d marks the D form. Peptide text beside a SMILES is read from it. * marks the point of attachment. ξ: configuration not given here. NBD = O=[N+]([O-])c1ccc(*)c2nonc12; dDab = NCC[C@@H](N)C(=O)O; Dab = NCC[C@H](N)C(=O)O; AEEA = NCCOCCOCC(=O)O; ξDab = NCCC(N)C(=O)O
Tests used:
[1] = tested on: bacteria over lung surfactant constituents; experiment: Bacterial labelling in the presence of lung surfactant constituents (confocal); assay type: cell-based
Experimental: Ratio of bacterial fluorescence intensity:surfactant fluorescent intensity quantified from confocal microscopy images.
In vitro experiments were conducted using lung surfactant constituents to investigate the ability of probes to preferentially detect bacteria in the presence of large amounts of surfactant. […] A suspension of surfactant constituents in buffered saline was prepared (20 mg/ml, 65% dipalmitoylphosphatidylcholine, 30% phosphatidylglycerol, 5% palmitic acid with 1 mg/ml tyloxapol as a spreading agent) and incubated with and without A549 epithelial cell monolayer.
Surfactant 5 μg 1,2-Dipalmitoyl-sn-glycero-3-phosphocholine (DPPC) and 2.5 μg L-α-Phosphatidyl-DL-glycerol sodium salt (from egg yolk lecithin; PG) were dissolved in 500 μl chloroform and evaporated under nitrogen to a thin lipid film in a round bottom flask. The lipid film was rehydrated with PBS at 48° C. for 1 hour with agitation (750 rpm) to generate multilammelar vesicles (MLV). These were diluted 1:4 for use in confocal experiments.

[2] = Emission spectra of probes in PBS or DMSO (hydrophobic environment); assay type: physicochemical; details: excited at 488 nm; NBD-UBIdend 5 μM, NBD-UBINle 15 μM, NBD-PMX 10 μM
Experimental: A) Emission spectra shown for NBD-UBIdend (5 μM) and NBD-UBINle (15 μM) in the presence of PBS or DMSO (hydrophobic environment) when excited at 488 nm wavelength. B) Emission spectra shown for NBD-PMX (10 μM) in the presence of PBS or DMSO (hydrophobic environment) when excited at 488 nm wavelength. The fluorescence of both probes greatly increases under hydrophobic conditions as would be present upon binding to the bacterial membrane target.
To confirm the fluorescent reporter NBD retains its characteristics when coupled with our peptide moieties we measured the fluorescence of the compounds in conditions to mimic a hydrophobic environment (DMSO).

[3] = tested on: PA3284; experiment: Bacterial labelling in the presence or absence of ovine lavage (confocal); assay type: cell-based, Pseudomonas aeruginosa; details: 1 μM
[4] = tested on: pre-labelled bacteria in ovine lung; experiment: Pre-labelled bacteria instilled into the ovine lung and imaged by FCFM
From the text: FIG. 14: NBD-UBIdend and NBD-PMX are resistant to ‘wash off’ allowing detection of bacteria in the ovine lung. […] However, when bacteria pre-labelled with linear NBD-UBINle are instilled, no punctate signal is seen. Labelling was confirmed by imaging bacterial suspensions (left hand panels) before instillation into the lung and imaging by FCFM (right hand panels). Note the lower SNR for NBD-UBINle labelled bacteria in suspension. Representative images shown, n=3 for each experiment.
In the distal lung, there is likely to be significant and rapid dissipation of the probes immediately after delivery. Therefore, it is imperative that probe-bacterial labelling remains persistent under these conditions. […] As such, this resistance to ‘wash-off’ represents a surrogate indicator of probe-bacterial affinity which appears to be an absolute requirement for distal lung in situ labelling.
We have obtained evidence that the wash-off properties of the probes, most likely related to affinity and/or the nature of subsequent insertion into the bacterial membrane, impact on whether or not they can be used to successfully image in the lung. The retention of labelling upon removal of probe solution was investigated in vitro by confocal. With all of the linear UBI variants labelling was lost completely upon wash-off. […]

[5] = room temperature
[6] = tested on: human erythrocytes; experiment: Haemolysis assay; details: up to 100 μM; 0.2% Triton-X = 100%
Experimental: Positive control was 0.2% Triton-X and values corrected to represent 100% haemolysis for Triton-X.
Erythrocytes were isolated from freshly drawn, anticoagulated human blood and resuspended to 20 vol % in PBS (pH 7.4). In a 96-well microtiter plate, 100 μl of erythrocyte suspension was added to 100 μl of NLLP solution in PBS (prepared by 1:2 serial dilutions) or 100 μl of PBS in the case of negative controls. One-hundred percent haemolysis wells contained 100 μl of red cell suspension with 100 μl of 0.2 vol % Triton X-100. The plate was incubated for 1 h at 37° C., and then each well was diluted with 150 μl of PBS. The plate was then centrifuged at 1,200 g for 15 min, 100 μl of the supernatant from each well was transferred to a fresh microtiter plate, and A350 was measured. Percentage of haemolysis was determined as (A−A0)/(Atotal−A0)×100, where A is the absorbance of the test well, A0 the absorbance of the negative controls, and Atotal the absorbance of 100% haemolysis wells, all at 350 nm on a Biotek plate reader.

[7] = tested on: bacteria in ovine lung; experiment: Automated image processing of entire FCFM videos from ovine lung; details: 80 spots per frame threshold
From the text: FIG. 19: Image Processing Algorithms delineate ‘positive’ and ‘negative’ frames from FCFM data A) raw data for a frame that is deemed positive or negative. B) Without pre-processing, spot-detection is ineffective. Following estimation of background noise C), high-pass filtering D) and appropriate thresholding E), the current algorithm detect minimal punctate signal in negative frames F).
Analysis of NBD-UBIdend videos with thresholding at 80 spots per frame and an arbitrary cut-off of 10% enables objective detection of bacteria using a combination of Laplacian of Gaussian (LoG) and Difference of Gaussians (DoG) positive frames. […]
We have begun to develop bespoke image analysis/processing strategies to perform rapid real-time objective analysis of the large datasets generated by the probe/FCFM platform. […] These signal and image processing algorithms will be rapidly iterated in readiness for clinical application, and we expect significant components of machine-learning to be incorporated into further optimisation of NBD-UBIdend and NBD-PMX datasets.
Spots are enhanced in an image by convolving with a LoG or DoG filter. […] Finally, spots are detected with LoG or DoG. […]

[8] = Stability in saline or BALF from patients with Acute Lung Injury (MALDI-TOF / FTMS); details: incubated for 30 minutes
Experimental: FIG. 16: NBD-UBIdend is stable in ALI BALF. […] NBD-PMX is stable in ALI BALF.
Secondly we assessed stability of the probes in broncholalveolar lavage fluid (BALF) from patients with Acute Lung Injury (ALI) by Fourier Transform Mass Spectrometry (FTMS) and Matrix-Assisted Laser Desorption/Ionization Time-of-Flight Mass Spectrometry (MALDI-TOF MS) analysis. NBD-UBINle, NBD-UBIdend and NBD-PMX were incubated for 30 minutes with BALF (FIG. 16).
In vitro labelling was assessed on benchtop confocal in the presence of compound with bacteria and labelling was compared to NBD-UBINle which served as a reference control for bacterial labelling. […] For the ex vivo and in vivo ovine lung experiments each compound was assessed in a control lung segment (instilled with 2 ml PBS) or a bacterial segment (instilled with 2 ml of 2 optical density of bacteria). Following bacterial instillation, the compound was administered to the segment of interest and this was imaged by probe based confocal laser endomicroscopy (FCFM).
Probe was added to saline or pooled BALF from patients with ALI incubated for 30 minutes. A ZipTip (C-18, 0.2 μL) with 5 μL MeCN (with 0.1% TFA as an additive) followed by 20 μL of H2O was washed. The ZipTip was loaded with the sample, washed and eluted into 5 μL of 80% aq. MeCN (with 0.1% TFA as an additive). The sample was analysed by MALDI-TOF (PerSeptive Biosystems Voyager DETMSTR MALDI-TOF mass spectrometer (Applied Biosystems, Foster City, Calif.)).

CC(C)C[C@@H]1NC(=O)[C@@H](Cc2ccccc2)NC(=O)[C@@H](CCN)NC(=O)C(NC(=O)[C@H](CCN)NC(=O)[C@@H](NC(=O)COCCOCCNc2ccc([N+](=O)[O-])c3nonc23)[C@@H](C)O)CCNC(=O)[C@@H]([C@H](C)O)NC(=O)[C@H](CCN)NC(=O)[C@H](CCN)NC1=O (stereo partly shown) [NBD-PMX] ({NBD-AEEA}-T[Dab][ξDab][dDab][dF]L[Dab][Dab][dT]; lactam 3-C)
selectivity for bacterial labelling over lung surfactant constituents [1]: possess selectivity for bacterial labelling over lung surfactant constituents
bacterial:surfactant fluorescence intensity compared with linear NBD-UBINle ([1]; equimolar NBD concentrations): significantly higher bacterial: surfactant intensity than NBD-UBInle
fluorescence in DMSO compared to PBS [2]: significant increase in fluorescence
fluorescence in ovine lavage versus absence of lavage [3]: no significant reduction of fluorescence intensity
detection of pre-labelled bacteria after instillation [4]: readily visualised
Stability [5]: > 1 week
red cell haemolysis [6]: no red cell haemolysis
detection by automated image processing (percentage positive frames, YES/NO) [7]: unequivocal detection of bacteria and Gram status
stability in ALI BALF [8]: demonstrate stability
stability in saline [8]: readily identified in both saline and BALF incubated samples
